Measured values reported in patent US20200390729A1, “OPHTHALMIC TOPICAL COMPOSITION COMPRISING DOBESILIC ACID FOR TREATING DISEASES OF THE POSTERIOR SEGMENT OF THE EYE” (LABORATORIOS SALVAT, S.A., priority 2017, published 2020).

Test system: egg chorioallantoic membrane (CAM)
Experiment: Ocular irritation assay (HET-CAM)
Parameters: species or system White Leghorn chicken eggs
Details: 100 mg/ml, CAM observed for 5 minutes
Description: The HET-CAM is an alternative method to the Draize Rabbit Eye Test which mimics vascular changes in the chorioallantoic membrane, an analog for ocular conjunctiva, which can be used to determine the potential irritancy of a test substance. This method is based on that described in Hen's Egg Test-Chorioallantoic Membrane (HET-CAM) Test Method (ICCVAM-Recommended Test Method Protocol, NIH Publication No. 10-7553—Published 2010)
Fertilized white SPF (special pathogen free) White Leghorn chicken eggs were incubated at 37° C. and 60% humidity up to day 10. After determination of the viability of the embryo, a rectangular window was removed from the shell directly over the air cell and the egg membrane was carefully moistened with 2-3 ml 0.9% saline. After returning to the incubator for 30 minutes, the inner membrane was removed and the test substance was applied to the CAM membrane with a pipette. Eggs were observed continuously for 5 minutes for the appearance of lysis, hemorrhage and/or coagulation and an irritation score (IS) was determined following the ICCVAM-Recommended Test Method Protocol (NIH Publication No. 10-7553-Published 2010) guideline.

Structure (SMILES) | HET-CAM irritation characterization | HET-CAM lysis, haemorrhage or coagulation processes
CCNCC.O=S(=O)(O)c1cc(O)ccc1O [etamsylate, diethylamine 2,5-dihydroxybenzenesulfonate] | not irritating | did not trigger any lysis, haemorrhage or coagulation processes
O=S(=O)([O-])c1cc(O)ccc1O.[K+] [potassium dobesilate] | not irritating | did not trigger any lysis, haemorrhage or coagulation processes
